In patent US12274703B2, “Compositions and methods of treatment for neurological disorders comprising a dementia” (Gliapharm SA, priority 2017, dated 2025) one finds EC50 data, which are given here for 34 compounds.

SMILES strings stand for the structures.

This test relates to astrocytes. Nature of the test: Extracellular lactate quantification. The class given is cell-based, mouse. The following applies: Mus musculus, Astrocyte; Appendix II; lactate secretion; read-out: EC50. Here is the method:
Primary cultures of cerebrocortical astrocytes were obtained from 1-2-day-old OF1 mouse pups (Charles River Laboratories). Briefly, cortices were isolated and minced in small pieces under a dissecting microscope. The cells were incubated for 30 min at 37° C. in a solution containing 20 U/ml of papain enzyme (Worthington Biochemical), L-cysteine 1 mM (Sigma), and 10 kU/ml DNase I (Worthington Biochemical) for an enzymatic dissociation. Papain activity was stopped by the addition of fetal calf serum (FCS) to the solution, and a single-cell suspension was then obtained by mechanical dissociation, which consisted in cells trituration in a DMEM (D7777, Sigma-Aldrich) medium (supplemented with 44 mm NaHCO3, and 10 ml/L antibiotic/antimycotic solution) containing 10% FCS. The cells were seeded at an average density of 6×10^4 cells/cm^2 in poly-D-lysine-coated 96, 12 or 6-well culture plates, depending on their use, and incubated at 37° C. in a humidified atmosphere containing 5% CO2/95% air. Culture medium was renewed twice per week. Cells were stimulated and harvested between DIV14 and DIV17, when confluence and cell growth were optimal.
Secretion of L-lactate was determined in the extracellular medium of 96-well plated astrocytes after 90 min stimulation (at 37° C., in 5% CO2/95% air conditions) with the drug of interest. The stimulation medium was composed of D5030 medium (completed with D-glucose 5 mM and 44 mM sodium bicarbonate) for 90 min in concentrations ranging from 0 to 100 μM.
Briefly, 200 μl of a Glycine (Sigma)-Semicarbazide (Acros) 0.2M pH 10 buffer containing 3 mM NAD (Roche) and LDH 14 U/ml (Roche) was added to each well of a 96-well plate containing 30 μl aliquots complemented with 20 μl fresh complete D5030 medium. Samples were incubated at 37° C. for 1 h. After samples cooled down at room temperature, the fluorescence intensity (340 nm excitation/450 nm emission) that represents the amount of NADH produced was measured, and lactate concentration values were determined from a standard curve of L-lactate.
Statistical analysis consisted in ANOVA followed by Fisher LSD post-hoc test for pair-wise comparisons.
Levels of lactate secreted by astrocytes were measured in the extracellular medium at 90 min after stimulation with hits (molecules) from the CDC54K library.
As to `CCc1cc2c(NC3CCCC3)ncnc2s1` [887-0183], the concentration giving a half-maximal response (EC50) came out at 3.94 µM.
For `Cc1noc2ncnc(NC(C)CCc3ccccc3)c12` (stereo not shown) [E944-0182] the value was 3.99 µM.
`COc1ccc(S(=O)(=O)Nc2ccc(N3CCCCS3(=O)=O)cc2)cc1C` [F2794-0128]: the EC50 was 9.85 µM.
For `Cc1cccc(NS(=O)(=O)c2ccc(F)c(Cl)c2)c1` [F3394-1364] the value was 5.87 µM; for `FC(F)(F)c1cccc(CNc2ncnc3[nH]ncc23)c1` [F5285-0069], 6.29 µM.
With `CCc1ccc(S(=O)(=O)Nc2cc3c(cc2C)n(C)c(=O)n3C)cc1` [G433-0293], the EC50 came out at 4.48 µM.
Take `COc1ccc(NS(=O)(=O)c2ccc(N3CCCCS3(=O)=O)cc2)cc1` [G508-0015]: the EC50 worked out at 4.83 µM.
For `CCc1cccc(NS(=O)(=O)c2ccc3c(c2)CCCN3C(C)=O)c1` [G855-0143], the EC50 came out at 4.72 µM.
Regarding `CC(=O)N1CCCc2cc(S(=O)(=O)Nc3ccc(OC(F)(F)F)cc3)ccc21` [G855-0183], the EC50 amounted to 6 µM.
With `CCNc1cc(C)nc(Nc2ccc(NC(=O)Cc3ccccc3)cc2)n1` [G869-0064], the EC50 stood at 4.26 µM.
For `CCNc1cc(C)nc(Nc2ccc(NC(=O)c3cccs3)cc2)n1` [G869-0071] the value was 4.9 µM.
For `COc1ccc(CCNc2ncnc3c2cnn3C)cc1` [K405-2595] the value was 3.51 µM; for `CCOc1ccc(-c2csc3c(=O)n(Cc4ccncc4)cnc23)cc1OCC` [L115-0403], 3.28 µM; for `CC(=O)N1CC(C)(C)c2cc(S(=O)(=O)NCc3ccc(C)cc3)ccc21` [L302-0069], 6.27 µM.
For `CC(=O)N1CC(C)(C)c2cc(S(=O)(=O)Nc3ccc(F)cc3C)ccc21` [L302-0181] the value was 5.05 µM.
In the case of `Cn1c(=O)c(N2CCC(NC(=O)Nc3cccc(Cl)c3)CC2)nc2ccccc21` [L932-0267], the EC50 came out at 4.64 µM.
As to `CN(C)c1ccc2ncnc(N3CCN(C(=O)c4ccc(Cl)cc4)CC3)c2c1` [M381-0730], the EC50 is 3.19 µM.
For `CCc1ccc(NC(=O)Cc2cn(C)c3ncccc23)cc1` [M508-0370] the value was 4.58 µM.
For `CCc1ccc(NS(=O)(=O)c2c(C)c(-c3nnc(C4CC4)o3)n(C)c2C)cc1` [M950-1515] the value was 4.06 µM; for `CCCCN1C(=O)C(C)(C(=O)Nc2ccc(OCC)cc2)Oc2cccnc21` (stereo not shown) [P621-1364], 5.86 µM; for `CCOc1ccc(C2(O)C(C)[N+]3=C(CCC3)N2c2ccc(OC)cc2)cc1` (stereo not shown) [T0500-6629], 2.61 µM.
As for `Cc1nc2ccccc2n1CCOc1ccc(Br)cc1` [T0505-4087], the EC50 amounted to 7.07 µM.
For `c1ccc(-c2c[nH]c3ncnc(NCCN4CCOCC4)c23)cc1` [T0513-0213] the value was 3.99 µM; for `CC1(C)Cc2cccc(OCC(O)CN3CCc4ccccc4C3)c2O1` (stereo not shown) [T0515-1783], 5.39 µM.
For `N#Cc1cc(C(=O)c2cc(F)ccc2O)cn(-c2ccc(F)c(Cl)c2)c1=O` [T0516-6894] the value was 8.21 µM; for `Cc1sc2nc(CSc3nc4ccccc4c(=O)n3C)[nH]c(=O)c2c1C` [T0517-2783], 3.84 µM; for `COc1ccc(NS(=O)(=O)c2cccc(NC(=O)c3cccs3)c2)cc1` [T0517-4117], 5.43 µM.
Consider `CCN(CC)C(=O)c1nc(CNC(=O)c2ccc3ccccc3n2)oc1C` [T993-1787], for which the EC50 stood at 7.99 µM.
As for `O=c1[nH]nc(OCCOc2ccc(Br)cc2)n1C1CC1` [T533260], the EC50 was 6.84 µM.
For `COc1ccc(NS(=O)(=O)c2cccc(NC(=O)c3ccccc3)c2)cc1` [T5274959], the EC50 is 4.12 µM.
For `O=S(=O)(Nc1ccc(S(=O)(=O)C(F)F)cc1)c1ccc(Cl)cc1` [T5311200] the value was 6.02 µM.
Consider `CCOc1ccc(CN(C)CC(=O)Nc2cccc(C)c2)cc1OC` [T5318833], for which the EC50 came out at 5.45 µM.
For `COc1ccc(NS(=O)(=O)c2ccc(NC(=O)C3CCCO3)cc2)cc1` (stereo not shown) [T5329723] the value was 4.61 µM.
For `CN1c2ccccc2C(=O)NC1c1ccc(Cl)c(Cl)c1` (stereo not shown) [T5389517] the value was 5.74 µM.
